From patent publication US5776903A, “Peptide derivatives usable as zinc endopeptidase 24-15 inhibitors” (Commissariat A l'Energie Atomique, priority 1995, dated 1998)

What was measured:
[1] = target: endopeptidase 24-16 (Homo sapiens, UniProt Q9BYT8); experiment: Inhibition of neurotensin degradation by purified endopeptidase 24-16 (HPLC), inhibition constant Ki; type: biochemical; settings: neurotensin 20 μmole/l, 1 hour at 30° C., tris-HCl pH 7.5
Protocol: This example studies the inhibiting effect of the peptides of the invention with respect to endopeptidase 24-16.
To this end, incubation takes place for 1 hour at 30° C. of 2 nmole (20 μmole/l) of neurotensin, which is a known endopeptidase 24-16 substrate with 8 μg of endopeptidase 24-16 purified in a final volume of 100 μl of tris-HCl buffer, 50 mM, pH 7.5, in the absence of peptide (control) or in the presence of the peptide tested at concentrations from 10^-11 to 10^-7 mole/l. After 1 hour of incubation analysis takes place of the solutions by HPLC and the inhibition constant Ki of the tested peptide is determined.

[2] = target: endopeptidase 24-15 (Rattus norvegicus, UniProt P24155); experiment: Inhibition of neurotensin degradation by purified endopeptidase 24-15 (HPLC), inhibition constant Ki; settings: for SELECTIVITY (ratio Ki24-16 /Ki24-15): selectivity relative to endopeptidase 24-16
Chain of endopeptidase 24-15 (P24155 whole entry): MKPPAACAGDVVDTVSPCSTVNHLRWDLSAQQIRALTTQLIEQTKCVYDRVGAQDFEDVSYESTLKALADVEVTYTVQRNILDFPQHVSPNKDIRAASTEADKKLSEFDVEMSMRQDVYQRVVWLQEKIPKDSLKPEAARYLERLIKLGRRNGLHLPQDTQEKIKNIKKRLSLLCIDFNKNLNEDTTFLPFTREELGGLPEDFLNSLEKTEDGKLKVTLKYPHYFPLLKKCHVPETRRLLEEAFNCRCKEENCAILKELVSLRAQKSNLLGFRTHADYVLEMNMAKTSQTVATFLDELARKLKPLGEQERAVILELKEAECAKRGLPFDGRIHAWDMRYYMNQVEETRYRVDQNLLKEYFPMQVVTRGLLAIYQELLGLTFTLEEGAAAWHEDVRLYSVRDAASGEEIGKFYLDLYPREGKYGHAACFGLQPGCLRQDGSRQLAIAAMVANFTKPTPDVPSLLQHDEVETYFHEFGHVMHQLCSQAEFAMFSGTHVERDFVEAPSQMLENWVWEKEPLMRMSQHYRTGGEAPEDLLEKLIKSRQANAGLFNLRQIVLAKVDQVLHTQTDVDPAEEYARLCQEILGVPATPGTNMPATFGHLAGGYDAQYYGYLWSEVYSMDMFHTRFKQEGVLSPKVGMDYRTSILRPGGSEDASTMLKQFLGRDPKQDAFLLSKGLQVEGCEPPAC
Protocol: Incubation takes place for 1 hour at 37° C. of 2 nmole (20 μmole/l) of neurotensin, which is a known endopeptidase 24-15 substrate, with 7 μg of purified endopeptidase 24-15 in a final volume of 100 μl of tris-HCl buffer, 50 nM, pH 7.5, in the absence of an inhibitor (control) or in the presence of the peptide tested at concentrations from 10^-11 to 10^-7 mole/l. After 1 hour incubation analysis takes place of the solutions by HPLC. On the basis of this analysis the inhibition constant Ki of the tested peptide is determined.

Chain of endopeptidase 24-16 (Q9BYT8 38-704): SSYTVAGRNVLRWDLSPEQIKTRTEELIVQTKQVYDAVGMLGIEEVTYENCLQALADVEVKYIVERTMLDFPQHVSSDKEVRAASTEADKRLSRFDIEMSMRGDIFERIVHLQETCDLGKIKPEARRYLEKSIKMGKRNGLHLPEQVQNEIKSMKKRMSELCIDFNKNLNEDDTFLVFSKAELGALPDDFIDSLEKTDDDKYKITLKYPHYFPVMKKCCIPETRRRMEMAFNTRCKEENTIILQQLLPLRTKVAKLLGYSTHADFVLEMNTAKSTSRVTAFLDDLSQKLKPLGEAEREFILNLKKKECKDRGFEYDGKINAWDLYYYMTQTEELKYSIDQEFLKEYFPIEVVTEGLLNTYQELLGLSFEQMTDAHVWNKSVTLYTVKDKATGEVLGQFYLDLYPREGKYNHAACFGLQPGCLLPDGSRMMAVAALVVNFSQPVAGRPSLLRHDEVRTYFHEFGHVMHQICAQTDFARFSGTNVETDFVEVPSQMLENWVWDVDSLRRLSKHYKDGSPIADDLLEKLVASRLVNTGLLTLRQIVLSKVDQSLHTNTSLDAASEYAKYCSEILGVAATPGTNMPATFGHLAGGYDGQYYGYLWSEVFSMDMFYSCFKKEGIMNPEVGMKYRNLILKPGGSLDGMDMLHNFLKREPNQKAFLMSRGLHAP

SMILES	Ki [1]	Ki [2]	SELECTIVITY (ratio Ki24-16 /Ki24-15) [2]	Ki expected for one of the diastereoisomers of the mixture ([2]; extrapolated from Ki of the mixture of 4 diastereoisomers)	affinity difference / power factor relative to Cpp-Ala-Pro-Phe-pAb ([2]; for the expected single diastereoisomer versus known inhibitor (Ki 7 nM))
CSCC[C@H](NC(=O)[C@H](CCCNC(=N)N)NC(=O)CCP(=O)(O)C(Cc1ccccc1)NC(=O)OCc1ccccc1)C(=O)O (mixture of isomers) [compound 1, Z--Phe .PSI. (PO2 CH2)Gly--Arg--Met]	132 nM	0.35 nM	377	–	–
CCCC[C@H](NC(=O)[C@H](CCCNC(=N)N)NC(=O)CCP(=O)(O)C(Cc1ccccc1)NC(=O)OCc1ccccc1)C(=O)O (mixture of isomers) [compound 2, Z--Phe .PSI. (PO2 CH2)Gly--Arg--Nle]	213 nM	1.6 nM	135	–	–
C[C@H](NC(=O)[C@H](CCCNC(=N)N)NC(=O)CCP(=O)(O)C(Cc1ccccc1)NC(=O)OCc1ccccc1)C(=O)O (mixture of isomers) [compound 3, Z--Phe .PSI. (PO2 CH2)Gly--Arg--Ala]	201 nM	2.2 nM	91	–	–
N=C(N)NCCC[C@H](NC(=O)CCP(=O)(O)C(Cc1ccccc1)NC(=O)OCc1ccccc1)C(=O)N[C@@H](Cc1ccccc1)C(=O)O (mixture of isomers) [compound 4, Z--Phe .PSI. (PO2 CH2)Gly--Arg--Phe]	1100 nM	2.7 nM	409	–	–
N=C(N)NCCC[C@H](NC(=O)CCP(=O)(O)C(Cc1ccccc1)NC(=O)OCc1ccccc1)C(=O)N[C@@H](Cc1ccc(O)cc1)C(=O)O (mixture of isomers) [compound 5, Z--Phe .PSI. (PO2 CH2)Gly--Arg--Tyr]	596 nM	3.6 nM	165	–	–
CC(C)C[C@H](NC(=O)[C@H](CCCNC(=N)N)NC(=O)CCP(=O)(O)C(Cc1ccccc1)NC(=O)OCc1ccccc1)C(=O)O (mixture of isomers) [compound 6, Z--Phe .PSI. (PO2 CH2)Gly--Arg--Leu]	846 nM	5 nM	169	–	–
N=C(N)NCCC[C@H](NC(=O)CCP(=O)(O)C(Cc1ccccc1)NC(=O)OCc1ccccc1)C(=O)N[C@@H](CCC(N)=O)C(=O)O (mixture of isomers) [compound 7, Z--Phe .PSI. (PO2 CH2)Gly--Arg--Gln]	690 nM	6.1 nM	113	–	–
CC(C)[C@H](NC(=O)[C@H](CCCNC(=N)N)NC(=O)CCP(=O)(O)C(Cc1ccccc1)NC(=O)OCc1ccccc1)C(=O)O (mixture of isomers) [compound 8, Z--Phe .PSI. (PO2 CH2)Gly--Arg--Val]	1130 nM	9.3 nM	121	–	–
CC[C@H](C)[C@H](NC(=O)[C@H](CCCNC(=N)N)NC(=O)CCP(=O)(O)C(Cc1ccccc1)NC(=O)OCc1ccccc1)C(=O)O (mixture of isomers) [compound 9, Z--Phe .PSI. (PO2 CH2)Gly--Arg--Ile]	589 nM	9.6 nM	61	–	–
N=C(N)NCCC[C@H](NC(=O)CCP(=O)(O)C(Cc1ccccc1)NC(=O)OCc1ccccc1)C(=O)N[C@@H](Cc1c[nH]c2ccccc12)C(=O)O (mixture of isomers) [compound 10, Z--Phe .PSI. (PO2 CH2)Gly--Arg--Trp]	2660 nM	13.1 nM	203	–	–
N=C(N)NCCC[C@H](NC(=O)CCP(=O)(O)C(Cc1ccccc1)NC(=O)OCc1ccccc1)C(=O)NCC(=O)O (mixture of isomers) [compound 11, Z--Phe .PSI. (PO2 CH2)Gly--Arg--Gly]	1660 nM	13.8 nM	120	–	–
N=C(N)NCCC[C@H](NC(=O)[C@H](CCCNC(=N)N)NC(=O)CCP(=O)(O)C(Cc1ccccc1)NC(=O)OCc1ccccc1)C(=O)O (mixture of isomers) [compound 12, Z--Phe .PSI. (PO2 CH2)Gly--Arg--Arg]	2040 nM	14 nM	145	–	–
N=C(N)NCCC[C@H](NC(=O)CCP(=O)(O)C(Cc1ccccc1)NC(=O)OCc1ccccc1)C(=O)N[C@@H](CC(N)=O)C(=O)O (mixture of isomers) [compound 13, Z--Phe .PSI. (PO2 CH2)Gly--Arg--Asn]	1380 nM	19.5 nM	71	–	–
N=C(N)NCCC[C@H](NC(=O)CCP(=O)(O)C(Cc1ccccc1)NC(=O)OCc1ccccc1)C(=O)N[C@@H](Cc1c[nH]cn1)C(=O)O (mixture of isomers) [compound 14, Z--Phe .PSI. (PO2 CH2)Gly--Arg--His]	3010 nM	23.2 nM	129	–	–
C[C@@H](O)[C@H](NC(=O)[C@H](CCCNC(=N)N)NC(=O)CCP(=O)(O)C(Cc1ccccc1)NC(=O)OCc1ccccc1)C(=O)O (mixture of isomers) [compound 17, Z--Phe .PSI. (PO2 CH2)Gly--Arg--Thr]	3640 nM	35.2 nM	103	–	–
N=C(N)NCCC[C@H](NC(=O)CCP(=O)(O)C(Cc1ccccc1)NC(=O)OCc1ccccc1)C(=O)N[C@@H](CCCCN)C(=O)O (mixture of isomers) [compound 18, Z--Phe .PSI. (PO2 CH2)Gly--Arg--Lys]	25700 nM	138 nM	186	–	–
N=C(N)NCCC[C@H](NC(=O)CCP(=O)(O)C(Cc1ccccc1)NC(=O)OCc1ccccc1)C(=O)N[C@@H](CCC(=O)O)C(=O)O (mixture of isomers) [compound 19, Z--Phe .PSI. (PO2 CH2)Gly--Arg--Glu]	8150 nM	163 nM	50	–	–
N=C(N)NCCC[C@H](NC(=O)CCP(=O)(O)C(Cc1ccccc1)NC(=O)OCc1ccccc1)C(=O)N[C@@H](CC(=O)O)C(=O)O (mixture of isomers) [compound 20, Z--Phe .PSI. (PO2 CH2)Gly--Arg--Asp]	20400 nM	352 nM	58	–	–
N=C(N)NCCC[C@H](NC(=O)CCP(=O)(O)C(Cc1ccccc1)NC(=O)OCc1ccccc1)C(=O)N1CCC[C@H]1C(=O)O (mixture of isomers) [compound 21, Z--Phe .PSI. (PO2 CH2)Gly--Arg--Pro]	36700 nM	3520 nM	10	–	–
CSCC[C@H](NC(=O)[C@H](CCCCN)NC(=O)C(C)CP(=O)(O)C(Cc1ccccc1)NC(=O)OCc1ccccc1)C(=O)O (mixture of isomers) [compound 22, Z--Phe .PSI. (PO2 CH2)Ala--Lys--Met]	225 nM	0.115 nM	1957	–	–
CCCC[C@H](NC(=O)[C@H](CCCCN)NC(=O)C(C)CP(=O)(O)C(Cc1ccccc1)NC(=O)OCc1ccccc1)C(=O)O (mixture of isomers) [compound 23, Z--Phe .PSI. (PO2 CH2)Ala--Lys--Nle]	162 nM	0.63 nM	257	–	–
CC(CP(=O)(O)C(Cc1ccccc1)NC(=O)OCc1ccccc1)C(=O)N[C@@H](CCCCN)C(=O)N[C@@H](C)C(=O)O (mixture of isomers) [compound 24, Z--Phe .PSI. (PO2 CH2)Ala--Lys--Ala]	436 nM	0.83 nM	525	–	–
CC(CP(=O)(O)C(Cc1ccccc1)NC(=O)OCc1ccccc1)C(=O)N[C@@H](CCCCN)C(=O)N[C@@H](Cc1ccccc1)C(=O)O (mixture of isomers) [compound 25, Z--Phe .PSI. (PO2 CH2)Ala--Lys--Phe]	1650 nM	1 nM	1652	–	–
CC(C)C[C@H](NC(=O)[C@H](CCCCN)NC(=O)C(C)CP(=O)(O)C(Cc1ccccc1)NC(=O)OCc1ccccc1)C(=O)O (mixture of isomers) [compound 26, Z--Phe .PSI. (PO2 CH2)Ala--Lys--Leu]	893 nM	1.82 nM	491	–	–
CC[C@H](C)[C@H](NC(=O)[C@H](CCCCN)NC(=O)C(C)CP(=O)(O)C(Cc1ccccc1)NC(=O)OCc1ccccc1)C(=O)O (mixture of isomers) [compound 27, Z--Phe .PSI. (PO2 CH2)Ala--Lys--Ile]	1260 nM	1.94 nM	652	–	–
CSCC[C@H](NC(=O)[C@H](CCCNC(=N)N)NC(=O)C(C)CP(=O)(O)C(Cc1ccccc1)NC(=O)OCc1ccccc1)C(=O)O (mixture of isomers) [compound 42, Z--Phe .PSI. (PO2 CH2)Ala--Arg--Met]	88 nM	0.067 nM	1312	approximately 15 pM	440
